Results as given in US20240158446A1, “CYCLIC COMPOUND HAVING SELECTIVE INHIBITORY ACTION ON KRAS OVER HRAS AND NRAS” (CHUGAI SEIYAKU KABUSHIKI KAISHA, priority 2021, published 2024).
Read-outs that look alike come from different tables or passages of the source. Where a SMILES comes first, the peptide text is derived from it. Bridges are numbered along the chain shown (N, C = ends). [ ]: non-standard residue; d: D form. The star is where a group is joined. hPhe(3-Cl-4-CF3) = N[C@@H](CCc1ccc(C(F)(F)F)c(Cl)c1)C(=O)O; NPrPhe(4-CF3) = CCCN[C@@H](Cc1ccc(C(F)(F)F)cc1)C(=O)O; NMeGly(cPent) = CN[C@H](C(=O)O)C1CCCC1; Pro(4,4-F2) = O=C(O)[C@@H]1CC(F)(F)CN1; NMeD = CN[C@@H](CC(=O)O)C(=O)O; NMeL = CN[C@@H](CC(C)C)C(=O)O; NMeNva = CCC[C@H](NC)C(=O)O; hPip = O=C(O)[C@@H]1CCCCCN1; NMeAbu = CC[C@H](NC)C(=O)O; Morpholide = C1CN(*)CCO1; NMeA = CN[C@@H](C)C(=O)O; Ac5c = NC1(C(=O)O)CCCC1; Aze = O=C(O)[C@@H]1CCN1; Ac4c = NC1(C(=O)O)CCC1; NEtG = CCNCC(=O)O; Sar = CNCC(=O)O

Experiments:
[1] = molecular target: GDP-bound KRAS wild-type protein (Homo sapiens, UniProt P01116); test: Binding to KRAS by surface plasmon resonance (SPR), Single Cycle Kinetics; settings: GDP-bound KRAS wild-type protein, read-out: KRAS KD
Chain of GDP-bound KRAS wild-type protein (P01116 whole entry): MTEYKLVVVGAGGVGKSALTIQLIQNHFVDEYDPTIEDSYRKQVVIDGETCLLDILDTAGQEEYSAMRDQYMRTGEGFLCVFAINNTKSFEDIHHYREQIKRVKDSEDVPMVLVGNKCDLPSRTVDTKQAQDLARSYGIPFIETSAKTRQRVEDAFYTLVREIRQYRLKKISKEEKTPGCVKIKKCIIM

[2] = molecular target: GDP-bound NRAS wild-type protein (Homo sapiens, UniProt P01111); test: Binding to NRAS by surface plasmon resonance (SPR), Single Cycle Kinetics; settings: for NRAS/KRAS (ratio of KD value for NRAS to KD value for KRAS): SPR, GDP-bound NRAS wild-type protein vs GDP-bound KRAS wild-type protein
Chain of GDP-bound NRAS wild-type protein (P01111 whole entry): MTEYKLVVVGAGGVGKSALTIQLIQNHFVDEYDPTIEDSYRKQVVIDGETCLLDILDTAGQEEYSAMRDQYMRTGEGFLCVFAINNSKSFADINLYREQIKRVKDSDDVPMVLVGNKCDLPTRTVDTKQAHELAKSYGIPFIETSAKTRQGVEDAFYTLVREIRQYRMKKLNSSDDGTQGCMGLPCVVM

[3] = molecular target: GDP-bound HRAS wild-type protein (Homo sapiens, UniProt P01112); test: Binding to HRAS by surface plasmon resonance (SPR), Single Cycle Kinetics; settings: for HRAS/KRAS (ratio of KD value for HRAS to KD value for KRAS): SPR, GDP-bound HRAS wild-type protein vs GDP-bound KRAS wild-type protein
Chain of GDP-bound HRAS wild-type protein (P01112 whole entry): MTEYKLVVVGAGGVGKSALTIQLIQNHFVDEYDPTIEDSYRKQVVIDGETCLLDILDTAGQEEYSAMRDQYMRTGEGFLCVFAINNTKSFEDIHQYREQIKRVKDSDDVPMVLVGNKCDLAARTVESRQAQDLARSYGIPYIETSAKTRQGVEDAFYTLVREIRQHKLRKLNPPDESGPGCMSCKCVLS

[4] = SPR Single Cycle Kinetics, 1:1 binding model

| SMILES | Kd ([1]; SPR, Single Cycle Kinetics) [nM] | Kd [1, 4] [nM] | NRAS/KRAS (ratio of KD value for NRAS to KD value for KRAS) [2] | HRAS/KRAS (ratio of KD value for HRAS to KD value for KRAS) [3] | also measured |
| --- | --- | --- | --- | --- | --- |
| CCCN1C(=O)CN(C)C(=O)CN(CC)C(=O)[C@H]([C@@H](C)CC)NC(=O)[C@@H]2CCCCCN2C(=O)C[C@@H](C(=O)N2CCOCC2)N(C)C(=O)[C@H](C2CCCC2)N(C)C(=O)C2(CCCC2)NC(=O)[C@@H]2CCCN2C(=O)[C@H](CCc2ccc(C(F)(F)F)c(Cl)c2)NC(=O)CN(C)C(=O)[C@@H]1Cc1ccc(C(F)(F)F)cc1 [PP0289] ([hPip]I[NEtG][Sar][NPrPhe(4-CF3)][Sar][hPhe(3-Cl-4-CF3)]P[Ac5c][NMeGly(cPent)][NMeD]-Morpholide; lactam N-11) |  | 2.2 | B (a compound having 3 or more and less than 10 is denoted as B) | B (a compound having 3 or more and less than 10 is denoted as B) |  |
| CCC[C@H]1C(=O)N[C@@H]([C@@H](C)CC)C(=O)N(C)CC(=O)N(C)[C@H]2C/C=C\CCN(C2=O)[C@@H](Cc2ccc(C)cc2)C(=O)N(C)CC(=O)N[C@@H](CCc2ccc3sc(F)c(C)c3c2)C(=O)N2C[C@H](OCC)C[C@H]2C(=O)NC2(CC(C)(C)C2)C(=O)N(C)[C@@H](C(CC)CC)C(=O)N(C)[C@H](C(=O)N(C)C)CC(=O)N1C [PP2894] |  | 0.31 |  |  | NRAS/KRAS (ratio of KD value with respect to GDP-bound NRAS wild-type protein to KD value with respect to KRAS) ([2]; SPR KD ratio NRAS/KRAS, class symbols): AA (a compound having 20 or more is denoted as AA); HRAS/KRAS (ratio of KD value with respect to GDP-bound HRAS wild-type protein to KD value with respect to KRAS) ([3]; SPR KD ratio HRAS/KRAS, class symbols): A (a compound having 10 or more and less than 20 is denoted as A) |
| CCO[C@@H]1C[C@H]2C(=O)NC3(CCC3)C(=O)N(C)[C@@H](C3CCCC3)C(=O)N(C)[C@H](C(=O)N(C)CC)CC(=O)N(C)[C@@H](CC)C(=O)N[C@@H]([C@@H](C)CC)C(=O)N(C)CC(=O)N(C)[C@H]3C/C=C\CCN(C3=O)[C@@H](CC3CCCCC3)C(=O)N(C)CC(=O)N[C@@H](CCc3cc(F)c(C(F)(F)F)c(F)c3)C(=O)N2C1 [PP1552] |  |  |  |  | Kd ([1]; SPR, Single Cycle Kinetics, 1:1 binding model): 0.19 nM; NRAS/KRAS (ratio of KD value for NRAS to KD value for KRAS) ([2]; KD ratio class): A (a compound having 10 or more and less than 20 is denoted as A); HRAS/KRAS (ratio of KD value for HRAS to KD value for KRAS) ([3]; KD ratio class): A (a compound having 10 or more and less than 20 is denoted as A) |
| CCCN1C(=O)[C@@H]2CCN2C(=O)[C@H](C)N(C)C(=O)[C@H]([C@@H](C)CC)NC(=O)[C@H](CC)N(C)C(=O)C[C@@H](C(=O)N2CCOCC2)N(C)C(=O)[C@H](C2CCCC2)N(C)C(=O)C2(CCCC2)NC(=O)[C@@H]2CC(F)(F)CN2C(=O)[C@H](CCc2ccc(C(F)(F)F)c(Cl)c2)NC(=O)CN(C)C(=O)[C@@H]1Cc1ccc(C(F)(F)F)cc1 [PP0206] ([NMeAbu]I[NMeA][Aze][NPrPhe(4-CF3)][Sar][hPhe(3-Cl-4-CF3)][Pro(4,4-F2)][Ac5c][NMeGly(cPent)][NMeD]-Morpholide; lactam N-11) |  | 0.071 | C (A compound having a KD ratio of 0.1 or more and less than 3 is denoted as C) | B (a compound having 3 or more and less than 10 is denoted as B) |  |
| CCCN1C(=O)CN(C)C(=O)CN(CC)C(=O)[C@H]([C@@H](C)CC)NC(=O)[C@H](CC(C)C)N(C)C(=O)C[C@@H](C(=O)N(C)C)NC(=O)[C@H](C2CCCC2)N(C)C(=O)C2(CCCC2)NC(=O)[C@@H]2CCCN2C(=O)[C@H](CCc2ccc(C(F)(F)F)c(Cl)c2)NC(=O)CN(C)C(=O)[C@@H]1Cc1ccc(C(F)(F)F)cc1 [PP0367] ([NMeL]I[NEtG][Sar][NPrPhe(4-CF3)][Sar][hPhe(3-Cl-4-CF3)]P[Ac5c][NMeGly(cPent)]D-NMe2; lactam N-11) |  | 1.3 | B (a compound having 3 or more and less than 10 is denoted as B) | B (a compound having 3 or more and less than 10 is denoted as B) |  |
| CCCN1C(=O)[C@@H]2CCN2C(=O)[C@H](C)N(C)C(=O)[C@H]([C@@H](C)CC)NC(=O)[C@H](CC(C)C)N(C)C(=O)C[C@@H](C(=O)N2CCOCC2)N(C)C(=O)[C@H](C2CCCC2)N(C)C(=O)C2(CCC2)NC(=O)[C@@H]2CC(F)(F)CN2C(=O)[C@H](CCc2ccc(C(F)(F)F)c(Cl)c2)NC(=O)CN(C)C(=O)[C@@H]1Cc1ccc(C(F)(F)F)cc1 [PP0208] ([NMeL]I[NMeA][Aze][NPrPhe(4-CF3)][Sar][hPhe(3-Cl-4-CF3)][Pro(4,4-F2)][Ac4c][NMeGly(cPent)][NMeD]-Morpholide; lactam N-11) |  | 0.26 | C (A compound having a KD ratio of 0.1 or more and less than 3 is denoted as C) | C (A compound having a KD ratio of 0.1 or more and less than 3 is denoted as C) |  |
| CCC[C@H]1C(=O)N[C@@H]([C@@H](C)CC)C(=O)N(C)CC(=O)N(C)CC(=O)N(CCC)[C@@H](Cc2ccc(C(F)(F)F)cc2)C(=O)N(C)CC(=O)N[C@@H](CCc2ccc(C(F)(F)F)c(Cl)c2)C(=O)N2CC(F)(F)C[C@H]2C(=O)NC2(CCCC2)C(=O)N(C)[C@@H](C2CCCC2)C(=O)N(C)[C@H](C(=O)N2CCOCC2)CC(=O)N1C [PP0201] ([NMeNva]I[Sar][Sar][NPrPhe(4-CF3)][Sar][hPhe(3-Cl-4-CF3)][Pro(4,4-F2)][Ac5c][NMeGly(cPent)][NMeD]-Morpholide; lactam N-11) |  | 0.06 | B (a compound having 3 or more and less than 10 is denoted as B) | C (A compound having a KD ratio of 0.1 or more and less than 3 is denoted as C) |  |

More lines, main results first:

| Kd ([1]; SPR, Single Cycle Kinetics) [nM] | Kd [1, 4] [nM] | SMILES | NRAS/KRAS (ratio of KD value for NRAS to KD value for KRAS) [2] | HRAS/KRAS (ratio of KD value for HRAS to KD value for KRAS) [3] | also measured |
| --- | --- | --- | --- | --- | --- |
| 0.13 |  | CCC[C@H]1C(=O)N[C@@H](C2CCCC2)C(=O)N(C)CC(=O)N(C)[C@H]2C/C=C\CCN(C2=O)[C@@H](Cc2ccc(C)cc2)C(=O)N(C)CC(=O)N[C@@H](CCc2cc(F)c(C(F)(F)F)c(F)c2)C(=O)N2CC3(CC3)C[C@H]2C(=O)NC2(CC(C)(C)C2)C(=O)N(C)[C@@H](CC(C)(C)C)C(=O)N(C)[C@H](C(=O)N(C)C)CC(=O)N1C [PP2999] | AA (a compound having 20 or more is denoted as AA) | A (a compound having 10 or more and less than 20 is denoted as A) |  |
| 0.43 |  | CCC[C@H]1C(=O)N[C@@H]([C@@H](C)CC)C(=O)N(C)CC(=O)N(C)[C@H]2C/C=C\CCN(C2=O)[C@@H](Cc2ccc(C)cc2)C(=O)N(C)CC(=O)N[C@@H](CCc2cc(F)c(C(F)(F)F)c(F)c2)C(=O)N2C[C@H](OCC)C[C@H]2C(=O)NC2(CC(C)(C)C2)C(=O)N(C)[C@@H](CC(F)(F)F)C(=O)N(C)[C@H](C(=O)N(C)C)CC(=O)N1C [PP2993] | A (a compound having 10 or more and less than 20 is denoted as A) | A (a compound having 10 or more and less than 20 is denoted as A) |  |
| 2.2 |  | CC[C@H](C)[C@@H]1NC(=O)[C@H](COC)N(C)C(=O)C[C@@H](C(=O)N2CCOCC2)N(C)C(=O)[C@H](C2CCCC2)N(C)C(=O)C2(CCCC2)NC(=O)[C@@H]2CCCN2C(=O)[C@H](CCc2cc(F)c(C(F)(F)F)c(F)c2)NC(=O)CN(C)C(=O)[C@H](Cc2ccc(C(F)(F)F)cc2)N2CCCCC[C@@H](C2=O)N(C)C(=O)CN(C)C1=O [PP0845] | B (a compound having 3 or more and less than 10 is denoted as B) | B (a compound having 3 or more and less than 10 is denoted as B) |  |
